# Test results published in patent US6737383B1, “Herbicidal oxadiazolidines” (priority 1999, dated 2004).
# What was measured:
# duck salad = assay: Test B flood test duck salad; format: in vivo, Heteranthera limosa
# In short: (§1)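 Each value is a visual injury score relative to controls, with 10 meaning complete control and 0 no effect. Evaluation took place twelve to sixteen days after the 2-leaf-stage plants were treated and kept in the greenhouse.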
# bedstraw = assay: Test B pre/postemergence bedstraw; format: in vivo, Galium aparine; details: Preemergence
# In short: (§2)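 Test chemicals in a non-phytotoxic solvent mixture with surfactant were sprayed preemergence onto planted seeds and postemergence onto plants 2 to 18 cm tall (1- to 4-leaf stage). After twelve to sixteen days in a greenhouse, injury was visually rated against untreated controls from 0 (no effect) to 10 (complete control).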
# rice = assay: Test B flood test rice; format: in vivo, Oryza sativa
# In short: as §1
# bamyardgrass = assay: Test B flood test barnyardgrass; format: in vivo, Echinochloa crus-galli
# In short: as §1
# giant foxtail = assay: Test B pre/postemergence giant foxtail; format: in vivo, Setaria faberii
# In short: as §2
# purple nutsedge = assay: Test B pre/postemergence purple nutsedge; format: in vivo, Cyperus rotundus
# In short: as §2
# pigweed = assay: Test B pre/postemergence pigweed; format: in vivo, Amaranthus retroflexus
# In short: as §2
# soybean = assay: Test B pre/postemergence soybean; format: in vivo, Glycine max
# In short: as §2
# corn = assay: Test B pre/postemergence corn; format: in vivo, Zea mays
# In short: as §2
# smallflower flatsedge = assay: Test B flood test smallflower flatsedge; format: in vivo, Cyperus difformis
# In short: as §1
# blackgrass = assay: Test B pre/postemergence blackgrass; format: in vivo, Alopecurus myosuroides
# In short: as §2
# surinam grass = assay: Test B pre/postemergence surinam grass; format: in vivo, Brachiaria decumbens
# In short: as §2
# sugar beet = assay: Test B pre/postemergence sugar beet; format: in vivo, Beta vulgaris
# In short: as §2
# wheat = assay: Test B pre/postemergence wheat; format: in vivo, Triticum aestivum
# In short: as §2
# rape = assay: Test B pre/postemergence rape; format: in vivo, Brassica napus
# In short: as §2
# velvetleaf = assay: Test B pre/postemergence velvetleaf; format: in vivo, Abutilon theophrasti
# In short: as §2
# morningglory = assay: Test B pre/postemergence morningglory; format: in vivo, Ipomoea hederacea
# In short: as §2
# cocklebur = assay: Test B pre/postemergence cocklebur; format: in vivo, Xanthium strumarium
# In short: as §2
# crabgrass = assay: Test B pre/postemergence crabgrass; format: in vivo, Digitaria sanguinalis
# In short: as §2
# wild oat = assay: Test B pre/postemergence wild oat; format: in vivo, Avena fatua
# In short: as §2
# [1] = Rate 62 g/ha, flood test species, Pre-emergence, visual evaluation after twelve to sixteen days
# [2] = Rate 125 g/ha, under heading Pre-emergence, flood test species, visual evaluation after twelve to sixteen days
# [3] = Rate 250 g/ha, Pre-emergence (flood test species), scale 0 to 10, 0 is no effect, 10 is complete control
# [4] = Rate 500 g/ha, Pre-emergence section of Table B, 0 to 10 scale (0 no effect, 10 complete control)
# [5] = Postemergence, Rate 62 g/ha, scale of 0 to 10, 0 is no effect, 10 is complete control
# [6] = Postemergence, Rate 125 g/ha, scale of 0 to 10 where 0 is no effect and 10 is complete control
# [7] = Postemergence, Rate 250 g/ha, scale of 0 to 10, 0 is no effect, 10 is complete control
# [8] = Postemergence, Rate 500 g/ha, scale of 0 to 10 where 0 is no effect and 10 is complete control
# [9] = Preemergence, Rate 62 g/ha, scale 0 to 10 (0 no effect, 10 complete control)
# [10] = Preemergence, Rate 125 g/ha, scale of 0 to 10 where 0 is no effect and 10 is complete control
# [11] = Preemergence, Rate 500 g/ha, scale of 0 to 10 where 0 is no effect and 10 is complete control
smiles,measurement,setting,value
CC(C)N(C(=O)n1oc(=O)n(CC[N+](=O)[O-])c1=O)c1ccc(F)cc1F [Compound 591],"Plant response rating, Ducksalad (0 to 10 scale, 0 is no effect, 10 is complete control)",duck salad; [1],0
same,"Ducksalad plant response rating (0 to 10 scale, 0 is no effect, 10 is complete control)",duck salad; [2],0
same,Ducksalad plant response rating,duck salad; [3],0
same,Ducksalad plant response rating,duck salad; [4],0
same,Bedstraw plant response rating,"bedstraw; Rate 62 g/ha, scale 0 to 10 (0 no effect, 10 complete control)",0
same,Bedstraw plant response rating,"bedstraw; Rate 125 g/ha, scale of 0 to 10 where 0 is no effect and 10 is complete control",0
same,"Plant response rating, Rice (0 to 10 scale, 0 is no effect, 10 is complete control)",rice; [1],0
same,"Rice plant response rating (0 to 10 scale, 0 is no effect, 10 is complete control)",rice; [2],0
same,Rice plant response rating,rice; [3],0
same,Rice plant response rating,rice; [4],0
same,"Plant response rating, Barnyardgrass (0 to 10 scale, 0 is no effect, 10 is complete control)",bamyardgrass; [1],0
same,"Barnyardgrass plant response rating (0 to 10 scale, 0 is no effect, 10 is complete control)",bamyardgrass; [2],0
same,Barnyardgrass plant response rating,bamyardgrass; [3],0
same,Barnyardgrass plant response rating,bamyardgrass; [4],0
same,Giant foxtail plant response rating,giant foxtail; [5],0
same,"Plant response rating, Giant foxtail",giant foxtail; [6],0
same,Giant foxtail plant response rating,giant foxtail; [7],0
same,"Plant response rating, Giant foxtail",giant foxtail; [8],0
same,Giant foxtail plant response rating,giant foxtail; [9],0
same,Giant foxtail plant response rating,giant foxtail; [10],0
same,"Plant response rating, Giant foxtail",giant foxtail; [11],0
same,Nutsedge plant response rating,purple nutsedge; [5],0
same,"Plant response rating, Nutsedge",purple nutsedge; [6],0
same,Nutsedge plant response rating,purple nutsedge; [7],0
same,"Plant response rating, Nutsedge",purple nutsedge; [8],0
same,Nutsedge plant response rating,purple nutsedge; [9],0
same,Nutsedge plant response rating,purple nutsedge; [10],0
same,"Plant response rating, Nutsedge",purple nutsedge; [11],0
same,"Plant response rating, Redroot pigweed",pigweed; [6],0
same,Redroot pigweed plant response rating,pigweed; [7],0
same,"Plant response rating, Redroot pigweed",pigweed; [8],0
same,Redroot pigweed plant response rating,pigweed; [9],0
same,Redroot pigweed plant response rating,pigweed; [10],0
same,"Plant response rating, Redroot pigweed",pigweed; [11],0
same,"Plant response rating, Soybean",soybean; [6],1
same,Soybean plant response rating,soybean; [7],2
same,"Plant response rating, Soybean",soybean; [8],2
same,Soybean plant response rating,soybean; [9],0
same,Soybean plant response rating,soybean; [10],0
same,"Plant response rating, Soybean",soybean; [11],0
same,Corn plant response rating,corn; [5],0
same,"Plant response rating, Corn",corn; [6],0
same,Corn plant response rating,corn; [7],0
same,"Plant response rating, Corn",corn; [8],0
same,Corn plant response rating,corn; [9],0
same,Corn plant response rating,corn; [10],0
same,Corn plant response rating (0 to 10 scale),"corn; Preemergence, Rate 250 g/ha",0
same,"Plant response rating, Corn",corn; [11],0
same,"Plant response rating, S. Flatsedge (0 to 10 scale, 0 is no effect, 10 is complete control)",smallflower flatsedge; [1],0
same,"S. Flatsedge plant response rating (0 to 10 scale, 0 is no effect, 10 is complete control)",smallflower flatsedge; [2],0
same,S. Flatsedge plant response rating,smallflower flatsedge; [3],0
same,S. Flatsedge plant response rating,smallflower flatsedge; [4],0
same,Blackgrass plant response rating,blackgrass; [5],0
same,"Plant response rating, Blackgrass",blackgrass; [6],0
same,Blackgrass plant response rating,blackgrass; [7],0
same,"Plant response rating, Blackgrass",blackgrass; [8],0
same,Blackgrass plant response rating,blackgrass; [9],0
same,Blackgrass plant response rating,blackgrass; [10],0
same,Blackgrass plant response rating (0 to 10 scale),"blackgrass; Preemergence, Rate 250 g/ha",0
same,Blackgrass plant response rating,blackgrass; [11],0
same,B. signalgrass plant response rating,surinam grass; [5],0
same,"Plant response rating, B. signalgrass",surinam grass; [6],0
same,B. signalgrass plant response rating,surinam grass; [7],0
same,"Plant response rating, B. signalgrass",surinam grass; [8],0
same,B. signalgrass plant response rating,surinam grass; [9],0
same,B. signalgrass plant response rating,surinam grass; [10],0
same,"B. signalgrass plant response rating (0 to 10 scale, 0 is no effect, 10 is complete control)","surinam grass; Preemergence, Rate 250 g/ha",0
same,B. signalgrass plant response rating,surinam grass; [11],0
same,"Plant response rating, Sugarbeets",sugar beet; [6],0
same,Sugarbeets plant response rating,sugar beet; [7],0
same,"Plant response rating, Sugarbeets",sugar beet; [8],0
same,Sugarbeets plant response rating,sugar beet; [9],0
same,Sugarbeets plant response rating,sugar beet; [10],0
same,"Plant response rating, Sugarbeets",sugar beet; [11],0
same,"Plant response rating, Wheat",wheat; [6],0
same,Wheat plant response rating,wheat; [7],0
same,"Plant response rating, Wheat",wheat; [8],0
same,Wheat plant response rating,wheat; [9],0
same,Wheat plant response rating,wheat; [10],0
same,"Plant response rating, Wheat",wheat; [11],0
same,Rape plant response rating,rape; [5],0
same,"Plant response rating, Rape",rape; [6],0
same,Rape plant response rating,rape; [7],0
same,"Plant response rating, Rape",rape; [8],0
same,Rape plant response rating,rape; [9],0
same,Rape plant response rating,rape; [10],0
same,"Plant response rating, Rape",rape; [11],0
same,"Plant response rating, Velvetleaf",velvetleaf; [6],0
same,Velvetleaf plant response rating,velvetleaf; [7],0
same,"Plant response rating, Velvetleaf",velvetleaf; [8],0
same,Velvetleaf plant response rating,velvetleaf; [9],0
same,Velvetleaf plant response rating,velvetleaf; [10],0
same,"Plant response rating, Velvetleaf",velvetleaf; [11],0
same,Morningglory plant response rating,morningglory; [5],0
same,"Plant response rating, Morningglory",morningglory; [6],0
same,Morningglory plant response rating,morningglory; [7],2
same,"Plant response rating, Morningglory",morningglory; [8],3
same,Morningglory plant response rating,morningglory; [9],0
same,Morningglory plant response rating,morningglory; [10],0
same,"Plant response rating, Morningglory",morningglory; [11],0
same,Cocklebur plant response rating,cocklebur; [5],0
same,"Plant response rating, Cocklebur",cocklebur; [6],0
same,Cocklebur plant response rating,cocklebur; [7],0
same,"Plant response rating, Cocklebur",cocklebur; [8],0
same,Cocklebur plant response rating,cocklebur; [9],0
same,Cocklebur plant response rating,cocklebur; [10],0
same,Cocklebur plant response rating (0 to 10 scale),"cocklebur; Preemergence, Rate 250 g/ha",0
same,"Plant response rating, Cocklebur",cocklebur; [11],0
same,Crabgrass plant response rating,crabgrass; [5],0
same,"Plant response rating, Crabgrass",crabgrass; [6],0
same,Crabgrass plant response rating,crabgrass; [7],0
same,"Plant response rating, Crabgrass",crabgrass; [8],0
same,Crabgrass plant response rating,crabgrass; [9],0
same,Crabgrass plant response rating,crabgrass; [10],0
same,"Plant response rating, Crabgrass",crabgrass; [11],0
same,"Plant response rating, Wild oats",wild oat; [6],0
same,Wild oats plant response rating,wild oat; [7],0
same,"Plant response rating, Wild oats",wild oat; [8],0
same,Wild oats plant response rating,wild oat; [9],0
same,Wild oats plant response rating,wild oat; [10],0
same,"Plant response rating, Wild oats",wild oat; [11],0
